The target of one assay is T1, human recombinant HDAC1 (Homo sapiens, UniProt Q13547).
T1 construct: purchased Enzo Life Science, Inc. BML-SE456
The experiment in a line: HDAC1 enzyme activity inhibition (HDAC Fluorimetric Drug Discovery Kit). It is filed as biochemical. Conditions: human recombinant HDAC1; IC50 calculated with GraphPad Prism; read-out: HDAC1. The protocol: (§1) An experiment was conducted to identify the selectivity of the compound represented by formula I of the present invention to HDAC6 through an experiment on HDAC1 and HDAC6 enzyme activity inhibition.
(§2) A 5-fold dilution of the compound was divided into a 96-well plate, after which […] of the enzyme and 10 μM of the substrate were inserted into each well and subjected to reaction at 30° C. for 60 minutes, such that Fluor de Lys® Developer II (BML-KI176) was inserted thereinto and subjected to reaction for 30 minutes and finished.

The target of a further assay is T2, human recombinant HDAC6 (Homo sapiens, UniProt Q9UBN7).
T2 construct: purchased Calbiochem Inc. 382180
T2 sequence (Q9UBN7 1-1215): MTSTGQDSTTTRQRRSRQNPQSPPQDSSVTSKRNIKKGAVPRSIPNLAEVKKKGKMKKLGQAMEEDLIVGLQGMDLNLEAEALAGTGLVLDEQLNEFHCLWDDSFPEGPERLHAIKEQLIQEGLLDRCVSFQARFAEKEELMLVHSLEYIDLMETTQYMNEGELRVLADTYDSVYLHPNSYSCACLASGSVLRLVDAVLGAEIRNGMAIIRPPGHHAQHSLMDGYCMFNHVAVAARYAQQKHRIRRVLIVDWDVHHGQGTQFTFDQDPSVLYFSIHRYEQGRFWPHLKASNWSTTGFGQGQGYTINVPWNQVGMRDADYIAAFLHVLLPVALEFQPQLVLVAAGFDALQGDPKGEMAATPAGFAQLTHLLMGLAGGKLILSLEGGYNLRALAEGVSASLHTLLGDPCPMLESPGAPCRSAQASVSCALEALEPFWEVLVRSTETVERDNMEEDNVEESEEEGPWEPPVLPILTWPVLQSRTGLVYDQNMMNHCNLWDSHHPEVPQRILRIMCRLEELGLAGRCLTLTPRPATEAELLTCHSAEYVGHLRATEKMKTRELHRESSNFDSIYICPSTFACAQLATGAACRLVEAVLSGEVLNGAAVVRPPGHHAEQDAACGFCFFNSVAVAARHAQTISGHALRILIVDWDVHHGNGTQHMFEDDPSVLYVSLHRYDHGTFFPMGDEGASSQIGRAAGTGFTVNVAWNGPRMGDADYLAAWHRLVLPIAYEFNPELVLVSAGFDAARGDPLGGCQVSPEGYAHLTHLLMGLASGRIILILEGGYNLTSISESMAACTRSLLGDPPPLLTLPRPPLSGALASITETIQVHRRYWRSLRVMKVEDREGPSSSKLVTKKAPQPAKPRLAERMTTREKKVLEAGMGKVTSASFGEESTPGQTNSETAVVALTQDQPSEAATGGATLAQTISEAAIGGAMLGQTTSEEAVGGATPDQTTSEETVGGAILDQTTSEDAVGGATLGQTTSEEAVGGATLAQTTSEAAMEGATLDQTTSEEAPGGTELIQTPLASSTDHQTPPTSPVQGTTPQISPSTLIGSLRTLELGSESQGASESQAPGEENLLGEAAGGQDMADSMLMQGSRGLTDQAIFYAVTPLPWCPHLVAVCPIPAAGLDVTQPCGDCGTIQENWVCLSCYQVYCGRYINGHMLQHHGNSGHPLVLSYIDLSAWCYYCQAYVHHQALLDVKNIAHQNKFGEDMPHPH
In words: HDAC6 enzyme activity inhibition (HDAC Fluorimetric Drug Discovery Kit). In kind it is biochemical. Conditions: for HDAC6 selectivity (fold): HDAC1 IC50 / HDAC6 IC50; for IC50: human recombinant HDAC6, IC50 calculated with GraphPad Prism. Here is the method: as §1, §2

T1 sequence (Q13547 whole entry): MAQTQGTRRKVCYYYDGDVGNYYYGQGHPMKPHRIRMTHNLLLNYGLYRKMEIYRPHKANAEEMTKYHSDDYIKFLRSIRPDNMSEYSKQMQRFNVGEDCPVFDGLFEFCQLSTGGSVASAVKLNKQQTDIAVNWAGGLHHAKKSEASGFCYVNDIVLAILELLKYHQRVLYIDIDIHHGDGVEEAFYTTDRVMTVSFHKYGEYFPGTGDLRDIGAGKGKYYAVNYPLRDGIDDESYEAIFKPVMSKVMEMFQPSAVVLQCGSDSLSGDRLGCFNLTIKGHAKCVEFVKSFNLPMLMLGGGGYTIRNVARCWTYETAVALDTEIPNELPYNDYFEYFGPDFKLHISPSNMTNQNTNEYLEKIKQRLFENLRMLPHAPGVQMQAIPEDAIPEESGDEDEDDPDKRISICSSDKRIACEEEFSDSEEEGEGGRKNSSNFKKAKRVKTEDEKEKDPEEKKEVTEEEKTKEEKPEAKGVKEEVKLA

For `CC(C)(C)OC(=O)N1CCC(c2cn(Cc3ccc(-c4nnc(C(F)F)o4)cc3F)nn2)C1` (stereo not drawn) [Compound 3734, Tert-butyl 3-(1-(4-(5-(difluoromethyl)-1,3,4-oxadiazol-2-yl)-2-fluorobenzyl)-1H-1,2,3-triazol-4-yl)pyrrolidin-1-carboxylate], the IC50 on human recombinant HDAC1 is above 50000 nM. In addition, at human recombinant HDAC6, the “HDAC6 selectivity (fold)” value amounted to 500 fold and the IC50 was 244 nM.
For `CC(C)(C)OC(=O)N1CCC(c2cn(Cc3ccc(-c4nnc(C(F)F)o4)cc3F)nn2)CC1` [Compound 3735, Tert-butyl 4-(1-(4-(5-(difluoromethyl)-1,3,4-oxadiazol-2-yl)-2-fluorobenzyl)-1H-1,2,3-triazol-4-yl)piperidin-1-carboxylate] the same measures were above 50000 nM, 320 fold and 156 nM.
For `Fc1ccc(-c2cn(Cc3ccc(-c4nnc(C(F)F)o4)cn3)nn2)cc1F` [Compound 3737, 2-(difluoromethyl)-5-(6-((4-(3,4-difluorophenyl)-1H-1,2,3-triazol-1-yl)methyl)pyridin-3-yl)-1,3,4-oxadiazole] the same measures were above 50000 nM, 1043 fold and 47.9 nM.
For the molecule `O=C(O)c1cccc(-c2cn(Cc3ccc(-c4nnc(C(F)F)o4)cn3)nn2)c1` [Compound 3739], the IC50 at human recombinant HDAC1 was above 50000 nM. Also, at human recombinant HDAC6, the “HDAC6 selectivity (fold)” value is given as 782 fold and the IC50 was 63.9 nM.
As for `CC(C)(C)OC(=O)Nc1cccc(-c2cn(Cc3ccc(-c4nnc(C(F)F)o4)cn3)nn2)c1` [Compound 3741, Tert-butyl (3-(1-((5-(5-(difluoromethyl)-1,3,4-oxadiazol-2-yl)pyridin-2-yl)methyl)-1H-1,2,3-triazol-4-yl)phenyl)carbamate], the IC50 at human recombinant HDAC1 is above 50000 nM. In addition, on human recombinant HDAC6, the “HDAC6 selectivity (fold)” value worked out at 1754 fold and the IC50 is 28.5 nM.
As for `CN(C)c1cccc(-c2cn(Cc3ccc(-c4nnc(C(F)F)o4)cc3F)nn2)c1` [Compound 3774, 3-(1-(4-(5-(difluoromethyl)-1,3,4-oxadiazol-2-yl)-2-fluorobenzyl)-1H-1,2,3-triazol-4-yl)-N,N-dimethylaniline], the IC50 at human recombinant HDAC1 is above 50000 nM; at human recombinant HDAC6 it was 121 nM. The “HDAC6 selectivity (fold)” value on human recombinant HDAC6 is on record as 412 fold.
Turning to `CC(C)(C)OC(=O)N1CCC(c2cn(Cc3ccc(-c4nnc(C(F)F)o4)cn3)nn2)CC1` [Compound 3805, tert-butyl 4-(1-((5-(5-(difluoromethyl)-1,3,4-oxadiazol-2-yl)pyridin-2-yl)methyl)-1H-1,2,3-triazol-4-yl)piperidin-1-carboxylate], the IC50 at human recombinant HDAC1 is above 50000 nM; at human recombinant HDAC6, 59.2 nM. Also, on human recombinant HDAC6, the “HDAC6 selectivity (fold)” value amounted to 844 fold.
Regarding `CN1CCC(c2cn(Cc3ccc(-c4nnc(C(F)F)o4)cn3)nn2)CC1` [Compound 3806, 2-(difluoromethyl)-5-(6-((4-(1-methylpiperidin-4-yl)-1H-1,2,3-triazol-1-yl)methyl)pyridin-3-yl)-1,3,4-oxadiazole], the IC50 at human recombinant HDAC1 is above 50000 nM. Besides, at human recombinant HDAC6, the “HDAC6 selectivity (fold)” value was found to be 134 fold and the IC50 was 372 nM.
With `CCN1CCC(c2cn(Cc3ccc(-c4nnc(C(F)F)o4)cn3)nn2)CC1` [Compound 3807, 2-(difluoromethyl)-5-(6-((4-(1-ethylpiperidin-4-yl)-1H-1,2,3-triazol-1-yl)methyl)pyridin-3-yl)-1,3,4-oxadiazole], the IC50 at human recombinant HDAC1 was above 50000 nM. Also, at human recombinant HDAC6, the “HDAC6 selectivity (fold)” value was determined as 166 fold and the IC50 is 301 nM.
In the case of `CC(C)N1CCC(c2cn(Cc3ccc(-c4nnc(C(F)F)o4)cn3)nn2)CC1` [Compound 3808, 2-(difluoromethyl)-5-(6-((4-(1-isopropylpiperidin-4-yl)-1H-1,2,3-triazol-1-yl)methyl)pyridin-3-yl)-1,3,4-oxadiazole], the IC50 at human recombinant HDAC1 is above 50000 nM. On human recombinant HDAC6, the “HDAC6 selectivity (fold)” value was 143 fold and the IC50 is 348 nM.
Consider `FC(F)c1nnc(-c2ccc(Cn3cc(C4CCN(C5COC5)CC4)nn3)nc2)o1` [Compound 3809, 2-(difluoromethyl)-5-(6-((4-(1-(oxetan-3-yl)piperidin-4-yl)-1H-1,2,3-triazol-1-yl)methyl)pyridin-3-yl)-1,3,4-oxadiazole], for which the IC50 on human recombinant HDAC1 was above 50000 nM. Besides, on human recombinant HDAC6, the “HDAC6 selectivity (fold)” value was found to be 253 fold and the IC50 was 198 nM.
`FC(F)c1nnc(-c2ccc(Cn3cc(C4CCN(C5CC6(COC6)C5)CC4)nn3)nc2)o1` [Compound 3810, 2-(6-((4-(1-(2-oxaspiro[3.3]heptan-6-yl)piperidin-4-yl)-1H-1,2,3-triazol-1-yl)methyl)pyridin-3-yl)-5-(difluoromethyl)-1,3,4-oxadiazole]: the IC50 on human recombinant HDAC1 is above 50000 nM; on human recombinant HDAC6, 280 nM. Further, the “HDAC6 selectivity (fold)” value at human recombinant HDAC6 worked out at 178 fold.
Take `CC(=O)N1CCC(c2cn(Cc3ccc(-c4nnc(C(F)F)o4)cn3)nn2)CC1` [Compound 3811, 1-(4-(1-((5-(5-(difluoromethyl)-1,3,4-oxadiazol-2-yl)pyridin-2-yl)methyl)-1H-1,2,3-triazol-4-yl)piperidin-1-yl)ethan-1-one]: the IC50 at human recombinant HDAC1 was above 50000 nM. Moreover, at human recombinant HDAC6, the “HDAC6 selectivity (fold)” value is 241 fold and the IC50 was 207 nM.
Taken in the same sequence, the figures for `CS(=O)(=O)N1CCC(c2cn(Cc3ccc(-c4nnc(C(F)F)o4)cn3)nn2)CC1` [Compound 3812] were above 50000 nM, 446 fold and 112 nM.
For `O=C(CO)N1CCC(c2cn(Cc3ccc(-c4nnc(C(F)F)o4)cn3)nn2)CC1` [Compound 3813, 1-(4-(1-((5-(5-(difluoromethyl)-1,3,4-oxadiazol-2-yl)pyridin-2-yl)methyl)-1H-1,2,3-triazol-4-yl)piperidin-1-yl)-2-hydroxyethan-1-one], the IC50 was above 50000 nM on human recombinant HDAC1 and 300 nM on human recombinant HDAC6. Further, at human recombinant HDAC6, the “HDAC6 selectivity (fold)” value is given as 166 fold.
On to `CC(C)(C)OC(=O)N1CCC(c2cn(Cc3ccc(-c4nnc(C(F)F)o4)cn3)nn2)C1` (stereo not drawn) [Compound 3820, Tert-butyl 3-(1-((5-(5-(difluoromethyl)-1,3,4-oxadiazol-2-yl)pyridin-2-yl)methyl)-1H-1,2,3-triazol-4-yl)pyrrolidin-1-carboxylate], for which, on human recombinant HDAC1, the IC50 was above 50000 nM. Moreover, on human recombinant HDAC6, the “HDAC6 selectivity (fold)” value was found to be 294 fold and the IC50 was 170 nM.
Taken in the same sequence, the figures for `FC(F)c1nnc(-c2ccc(Cn3cc(CCc4cn5ccccc5n4)nn3)nc2)o1` [Compound 3822, 2-(difluoromethyl)-5-(6-((4-(2-(imidazo[1,2-a]pyridin-2-yl)ethyl)-1H-1,2,3-triazol-1-yl)methyl)pyridin-3-yl)-1,3,4-oxadiazole] were above 50000 nM, 244 fold and 205 nM.
As for `CN(C)c1cccc(-c2cn(Cc3ccc(-c4nnc(C(F)F)o4)cn3)nn2)c1` [Compound 3824, 3-(1-((5-(5-(difluoromethyl)-1,3,4-oxadiazol-2-yl)pyridin-2-yl)methyl)-1H-1,2,3-triazol-4-yl)-N,N-dimethylaniline], the IC50 was above 50000 nM on human recombinant HDAC1 and 20.5 nM on human recombinant HDAC6. Moreover, the “HDAC6 selectivity (fold)” value at human recombinant HDAC6 was 2439 fold.

These data come from patent publication US20230257372A1 (CHONG KUN DANG PHARMACEUTICAL CORP., priority 2020, published 2023).
